Measured values reported in publication PMC5664514 (Proceedings of the National Academy of Sciences of the …, 2017).

How the values were obtained:
Tg2576 AD mice [1] = settings: 25 mg/kg and 50 mg/kg; cited from earlier work
aged APP/PS1 mice = settings: 50 mg/kg i.p.; cited from earlier work
BDNF [2] = settings: cited from earlier work
APP-PS1-21 AD mice = settings: 2 mg/d orally, 10-mo-old mice; cited from earlier work
HEK/APPsw cells [3] = test: CellTiter-Glo luminescent cell viability assay; format: cell-based; settings: 10 μM, 48 h
ADAM10 = settings: via HDAC2/3 mechanism involving USF-1; cited from earlier work
HEK/APPsw cells [4] = test: Western blot of APP metabolites, ADAM10, BACE1, BDNF in HEK/APPsw cells; format: cell-based, human; settings: 10 μM, vs DMSO
Tg2576 AD mice [5] = settings: 200 mg/kg; cited from earlier work
BDNF [6] = settings: 0.8–5 mM; cited from earlier work

O=C(CCCCCCC(=O)Nc1ccccc1)NO [SAHA, suberoylanilide hydroxamic acid]
fear conditioning behavior (Tg2576 AD mice [1]): not behaviorally | synaptic plasticity (long-term potentiation) (Tg2576 AD mice [1]): positive effects on synaptic plasticity | cognitive behavior (aged APP/PS1 mice): improvement of cognitive behavior | BDNF gene expression (BDNF [2]): increase BDNF gene expression | Aβ plaques (APP-PS1-21 AD mice): no significant differences | H4K12 acetylation (APP-PS1-21 AD mice): increased H4K12 acetylation | spatial memory (APP-PS1-21 AD mice): partial improvement of spatial memory | cell viability (HEK/APPsw cells [3]): significantly reduce cell viability

CCC(=O)CCCCC[C@@H]1NC(=O)[C@H]2CCCCN2C(=O)[C@H]([C@@H](C)CC)NC(=O)[C@H](Cc2cn(OC)c3ccccc23)NC1=O [apicidin]
ADAM10 expression (ADAM10): up-regulating the expression of ADAM10

C=C(C)[C@@H](CC=C(C)C)C[C@@]12C[C@@H](CC=C(C)C)C(C)(C)[C@@](CC=C(C)C)(C(=O)C(C(=O)c3ccc(O)c(O)c3)=C1O)C2=O [garcinol]
BACE1 protein level, change (Western blot) (HEK/APPsw cells [4]): 54.3% | mature APP, change (Western blot) (HEK/APPsw cells [4]): 37.9% | sAPPα, change (Western blot) (HEK/APPsw cells [4]): −33.6%

O=C(/C=C/C#Cc1cccc(NS(=O)(=O)c2ccccc2)c1)NO [oxamflatin]
cell viability (HEK/APPsw cells [3]): significantly reduce cell viability

O=C([O-])CCCc1ccccc1.[Na+] [sodium 4-phenylbutyrate]
memory (Tg2576 AD mice [5]): positive effects on memory

CC(O)CC(=O)O (stereo not drawn) [β-hydroxybutyrate]
BDNF expression (BDNF [6]): increase BDNF expression
